In patent US8343475B2, “Small cationic antimicrobial peptides” (priority 2006, dated 2013):
In brackets after ≈: the same amount, converted by molar mass. Residues, ends and D or L forms follow the SMILES beside them.

Experiments:
[1] = tested on: Enterococcus faecalis ATCC29212; format: cell-based; settings: ATCC29212
Summary of the method: (§1)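 Broth microdilution in Mueller Hinton medium; peptides serially diluted at 10× in 0.01% acetic acid with 0.2% BSA, then added to polypropylene plates. Inoculum 2-7×10^5 CFU/ml from overnight culture, incubated overnight at 37° C. MIC = lowest concentration showing no growth.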

[2] = tested on: Staphylococcus aureus ATCC25923; format: cell-based; settings: ATCC25923
Summary of the method: as §1

[3] = tested on: Liverpool Epidemic Strains; format: cell-based, Pseudomonas aeruginosa
Experimental: (§2) Minimal inhibitory concentration (MIC) determination. The MIC of the peptides were measured using a modified broth microdilution method in Mueller Hinton (MH) medium (Wu M, Hancock R E W. 1999. Interaction of the cyclic antimicrobial cationic peptide bactenecin with the outer and cytoplasmic membrane. J Biol Chem 274, 29-35). Briefly, the peptides were dissolved and stored in glass vials. The assay was performed in sterile 96-well polypropylene microtitre plates were used. Serial dilutions of the peptides to be assayed were performed in 0.01% acetic acid (Fisher) containing 0.2% bovine serum albumin (Boehringer Mannheim GmbH) at 10× the desired final concentration. Ten microlitres of the 10× peptides were added to each well of a 96-well polypropylene plate containing 90 μl of MH media per well. Bacteria were added to the plate from an overnight culture at 2-7×10^5 colony forming units/ml and incubated over night at 37° C. The MIC was taken as the concentration at which no growth was observed.
(§3) All peptides derived from the 1st, 2nd, and 3rd quartiles were further evaluated for their antibacterial activities against several highly antibitoic resistant pathogens (Table 3). These included clinical isolates of MRSA, ESBL E. cloacae, and multidrug resistant Pseudomonas strains including Brazilian clinical isolates of P. aeruginosa that are resistant to meropenem, ceftazidime, piperacillin/tazobactam, ciprofloxacin, cefepime and polymyxin B, and the Liverpool Epidemic Strains. […] Such results characterize the developed peptides as excellent antibiotic candidates, providing new means for treating most dangerous and severe forms of human infections.

[4] = tested on: multidrug resistant Brazilian clinical isolates of P. aeruginosa; format: cell-based, Pseudomonas aeruginosa
Experimental: as §2, §3

[5] = tested on: ESBL E. cloacae; format: cell-based, Enterobacter cloacae
Experimental: as §2, §3

[6] = tested on: clinical isolates of MRSA; format: cell-based, Staphylococcus aureus
Experimental: as §2, §3

[7] = tested on: ESBL Klebsiella pneumonia clinical strain 63575; format: cell-based
Experimental: as §2
(§4) The selected peptides were synthesized and assayed against several major antibiotic-resistant pathogens. Initially, the peptides were screened against the laboratory strain of P. aeruginosa PAO1 to compare the results with the training data. […] The antibacterial activity in the form of minimal inhibitory concentration (MIC) of the other studied peptides was assessed in greater depth (Table 9) against many highly antibiotic resistanct pathogens.

[8] = tested on: multidrug resistant Pseudomonas maltophilia ATCC13637; format: cell-based
Experimental: as §2, §4

[9] = tested on: ESBL E. coli clinical strain 64771; format: cell-based; settings: ESBL clinical strain 64771
Experimental: as §2, §4

[10] = tested on: MCP-3 release by human PBMC; assay: Chemokine induction in PBMC (capture ELISA); format: cell-based; settings: background (6) subtracted
Summary of the method: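 Human PBMC from healthy donors (Ficoll-isolated), 7.5×10^5 cells at 0.75–1×10^6 cells/ml, treated with peptides at 20 or 100 μg/ml for 24 h at 37° C, 5% CO2. MCP-3 in cell-free supernatants measured by capture ELISA.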

[11] = tested on: CXCL1 (Gro-α) release by human PBMC; assay: Chemokine induction in PBMC (capture ELISA); format: cell-based; settings: background (196) subtracted
Summary of the method: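 Human PBMC from healthy donors' heparinised blood (Ficoll), 7.5×10^5 cells treated with 20 or 100 μg/ml peptide for 24 h at 37° C, 5% CO2. Cell-free supernatants assayed for CXCL1 by capture ELISA.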

[12] = tested on: MCP-1 release by human PBMC; assay: Chemokine induction in PBMC (capture ELISA); format: cell-based; settings: background (204) subtracted
Summary of the method: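 Heparinized blood from healthy volunteers; Ficoll-isolated human PBMC (7.5×10^5) treated with peptides at 20 or 100 μg/ml for 24 hours at 37° C, 5% CO2. Cell-free supernatants assayed for MCP-1 by capture ELISA.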

[13] = tested on: Pseudomonas aeruginosa PAO1 strain H103; format: cell-based
Summary of the method: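 Modified broth microdilution MIC in Mueller Hinton medium, peptides diluted in 0.01% acetic acid/0.2% BSA, polypropylene plates. Inoculum 2-7×10^5 CFU/ml, overnight at 37 °C; MIC is the lowest concentration with no visible growth.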

MIC [1] [µM]	MIC [2] [µM]	MIC [3] [µM]	MIC [4] [µM]	MIC [5] [µM]	MIC [6] [µM]	MIC [7] [µM]	MIC [8] [µM]	MIC [9] [µM]	MIC against P. aeruginosa PAO1 [13] [µM]	SMILES	Chemokine induction MCP-3 ([10]; 20 μg/ml peptide) [pg/mL]	Chemokine induction MCP-3 ([10]; 100 μg/ml peptide) [pg/mL]	Chemokine induction Gro-α ([11]; 20 μg/ml peptide) [pg/mL]	Chemokine induction Gro-α ([11]; 100 μg/ml peptide) [pg/mL]	Chemokine induction MCP-1 ([12]; 20 μg/ml peptide) [pg/mL]	Chemokine induction MCP-1 ([12]; 100 μg/ml peptide) [pg/mL]	antimicrobial activity against P. aeruginosa PAO1 (in words) ([13]; laboratory strain P. aeruginosa PAO1)
24 (≈ 34.7 µg/mL)	3 (≈ 4.33 µg/mL)	1.5 (≈ 2.17 µg/mL)	24 (≈ 34.7 µg/mL)	12 (≈ 17.3 µg/mL)	3 (≈ 4.33 µg/mL)	24 (≈ 34.7 µg/mL)	0.8 (≈ 1.16 µg/mL)	6 (≈ 8.66 µg/mL)		CC[C@H](C)[C@H](NC(=O)[C@H](CCCCN)NC(=O)[C@H](Cc1c[nH]c2ccccc12)NC(=O)[C@H](Cc1c[nH]c2ccccc12)NC(=O)[C@H](CCCNC(=N)N)NC(=O)[C@@H](N)Cc1c[nH]c2ccccc12)C(=O)N[C@@H](Cc1c[nH]c2ccccc12)C(=O)N[C@@H](CCCCN)C(=O)N[C@@H](CCCNC(=N)N)C(N)=O [HHC20, WRWWKIWKR] (H-WRWWKIWKR-NH2; N-terminus assumed)	8	12	169	33	290	974	
93 (≈ 136 µg/mL)	68 (≈ 99.2 µg/mL)	6 (≈ 8.75 µg/mL)	46 (≈ 67.1 µg/mL)	93 (≈ 136 µg/mL)	6 (≈ 8.75 µg/mL)	46 (≈ 67.1 µg/mL)	1.4 (≈ 2.04 µg/mL)	3 (≈ 4.38 µg/mL)		N=C(N)NCCC[C@H](NC(=O)[C@H](Cc1c[nH]c2ccccc12)NC(=O)[C@H](CCCCN)NC(=O)[C@H](CCCCN)NC(=O)[C@H](Cc1c[nH]c2ccccc12)NC(=O)[C@H](Cc1c[nH]c2ccccc12)NC(=O)[C@H](CCCNC(=N)N)NC(=O)[C@H](CCCCN)NC(=O)[C@@H](N)Cc1c[nH]c2ccccc12)C(N)=O [HHC45, WKRWWKKWR] (H-WKRWWKKWR-NH2; N-terminus assumed)	-2	-2	-15	-32	-9	161	
93 (≈ 136 µg/mL)	1.4 (≈ 2.04 µg/mL)	6 (≈ 8.75 µg/mL)	46 (≈ 67.1 µg/mL)	23 (≈ 33.6 µg/mL)	39 (≈ 56.9 µg/mL)	46 (≈ 67.1 µg/mL)	1.4 (≈ 2.04 µg/mL)	3 (≈ 4.38 µg/mL)		N=C(N)NCCC[C@H](NC(=O)[C@H](CCCNC(=N)N)NC(=O)[C@H](CCCCN)NC(=O)[C@H](Cc1c[nH]c2ccccc12)NC(=O)[C@H](Cc1c[nH]c2ccccc12)NC(=O)[C@H](CCCCN)NC(=O)[C@H](CCCCN)NC(=O)[C@@H](N)Cc1c[nH]c2ccccc12)C(=O)N[C@@H](Cc1c[nH]c2ccccc12)C(N)=O [HHC48, WKKWWKRRW] (H-WKKWWKRRW-NH2; N-terminus assumed)	-1	-1	-8	-10	2	12	

Continued, molecule first:

SMILES	MIC [1] [µM]	MIC [2] [µM]	MIC [3] [µM]	MIC [4] [µM]	MIC [5] [µM]	MIC [6] [µM]	MIC [7] [µM]	MIC [8] [µM]	MIC [9] [µM]	MIC against P. aeruginosa PAO1 [13] [µM]	Chemokine induction MCP-3 ([10]; 20 μg/ml peptide) [pg/mL]	Chemokine induction MCP-3 ([10]; 100 μg/ml peptide) [pg/mL]	Chemokine induction Gro-α ([11]; 20 μg/ml peptide) [pg/mL]	Chemokine induction Gro-α ([11]; 100 μg/ml peptide) [pg/mL]	Chemokine induction MCP-1 ([12]; 20 μg/ml peptide) [pg/mL]	Chemokine induction MCP-1 ([12]; 100 μg/ml peptide) [pg/mL]	antimicrobial activity against P. aeruginosa PAO1 (in words) ([13]; laboratory strain P. aeruginosa PAO1)
CC(C)C[C@H](NC(=O)[C@H](Cc1c[nH]c2ccccc12)NC(=O)[C@H](Cc1c[nH]c2ccccc12)NC(=O)[C@H](CCCCN)NC(=O)[C@H](Cc1c[nH]c2ccccc12)NC(=O)[C@H](CCCNC(=N)N)NC(=O)[C@H](CCCNC(=N)N)NC(=O)[C@H](Cc1c[nH]c2ccccc12)NC(=O)[C@@H](N)CCCNC(=N)N)C(N)=O [HHC9, RWRRWKWWL] (H-RWRRWKWWL-NH2; N-terminus assumed)	23 (≈ 33.9 µg/mL)	3 (≈ 4.42 µg/mL)	0.3 (≈ 0.442 µg/mL)	12 (≈ 17.7 µg/mL)	6 (≈ 8.83 µg/mL)	3 (≈ 4.42 µg/mL)	11 (≈ 16.2 µg/mL)	0.7 (≈ 1.03 µg/mL)	3 (≈ 4.42 µg/mL)		-1	48	-25	5	9	4493	
CC[C@H](C)[C@H](NC(=O)[C@H](Cc1c[nH]c2ccccc12)NC(=O)[C@H](Cc1c[nH]c2ccccc12)NC(=O)[C@H](CCCCN)NC(=O)[C@H](CC(C)C)NC(=O)[C@H](CCCNC(=N)N)NC(=O)[C@H](CCCCN)NC(=O)[C@@H](N)CCCNC(=N)N)C(=O)N[C@@H](Cc1ccc(O)cc1)C(N)=O [HHC66, RKRLKWWIY] (H-RKRLKWWIY-NH2; N-terminus assumed)	50 (≈ 67.4 µg/mL)	6 (≈ 8.09 µg/mL)	6 (≈ 8.09 µg/mL)	50 (≈ 67.4 µg/mL)	13 (≈ 17.5 µg/mL)	6 (≈ 8.09 µg/mL)	50 (≈ 67.4 µg/mL)	3 (≈ 4.04 µg/mL)	6 (≈ 8.09 µg/mL)	4 to 12	0	0	-12	-23	351	355	
CC[C@H](C)[C@H](NC(=O)[C@H](CCCCN)NC(=O)[C@H](Cc1c[nH]c2ccccc12)NC(=O)[C@@H](N)CCCCN)C(=O)N[C@@H](Cc1ccccc1)C(=O)N[C@@H](CCCNC(=N)N)C(=O)N[C@@H](CCCNC(=N)N)C(=O)N[C@@H](Cc1c[nH]c2ccccc12)C(=O)N[C@@H](Cc1c[nH]c2ccccc12)C(N)=O [HHC71, KWKIFRRWW] (H-KWKIFRRWW-NH2; N-terminus assumed)	24 (≈ 33.7 µg/mL)	3 (≈ 4.21 µg/mL)	3 (≈ 4.21 µg/mL)	24 (≈ 33.7 µg/mL)	6 (≈ 8.43 µg/mL)	3 (≈ 4.21 µg/mL)	97 (≈ 136 µg/mL)	1.5 (≈ 2.11 µg/mL)	12 (≈ 16.9 µg/mL)	4 to 12	0	2	-17	1	-6	99	
CC[C@H](C)[C@H](NC(=O)[C@H](C)N)C(=O)N[C@@H](CCCNC(=N)N)C(=O)N[C@@H](CCCNC(=N)N)C(=O)N[C@@H](Cc1c[nH]c2ccccc12)C(=O)N[C@@H](CCCNC(=N)N)C(=O)N[C@H](C(=O)N[C@@H](CCCNC(=N)N)C(=O)N[C@@H](CCCCN)C(N)=O)[C@@H](C)CC [HHC142, AIRRWRIRK] (H-AIRRWRIRK-NH2; N-terminus assumed)	>217	54 (≈ 67.7 µg/mL)	217 (≈ 272 µg/mL)	>217	108 (≈ 135 µg/mL)	54 (≈ 67.7 µg/mL)	>217	108 (≈ 135 µg/mL)	108 (≈ 135 µg/mL)		1	0	59	22	67	-16	did not return any generally active substances
